Results reported in patent US11738019B2, “Substituted heterocycles as antiviral agents” (ENANTA PHARMACEUTICALS, INC., priority 2019, dated 2023).

Legend:
[1] = compound induced cellular toxicity in HepG2 cells (ATPlite 1Step); assay type: cell-based; settings: human, three days, concentration reducing total ATP levels by 50% relative to no drug controls
Experimental: At day 3, post seeding cells are treated with ATPlite 1Step according to the manufacturer's instructions.

HBV (2.2.15 cells) = assay: HBV viral product reduction in 2.2.15 cells (qPCR / HBsAg or HBeAg ELISA); assay type: cell-based; settings: Hepatitis B virus, 120 h, day 5 post treatment, concentration reducing viral product accumulation in cell lysates or supernatants by 50% relative to no drug controls
Experimental: 2.2.15 cells are passaged upon attaining confluency in DMEM/F12 media in the presence of 10% FBS, Penn/Strep, and 250 ug/mL G418. Novel compounds are 5 fold serially diluted in DMSO and added to 96 well plates containing 35,000 cells/well at a 1:200 dilution so that the final concentration of DMSO is 0.5%. On day 5, post treatment cell lysates and supernatants are harvested for analysis.
Cells are lysed using Agilent Sidestep Lysis buffer, diluted 1:100 and quantified via quantitative real time PCR. Commercially available ELISA kits are used to quantitate the viral proteins HBsAg (Alpco) or HBeAg (US Biological) by following the manufacturer's recommended protocol after diluting samples to match the linear range of their respective assays. Irrespective of readout, compound concentrations that reduce viral product accumulation in the cell lysates or supernatants by 50% relative to no drug controls (EC50) are reported; EC50 ranges are as follows: A<0.1 μM; B 0.1-1 μM; C>1 μM.

SMILES: CC(C)(C)[C@@H]1Cc2c(cc(-c3ccoc3)c3occc23)-c2cc(=O)c(C(=O)O)cn21 [Example 13, (S)-5-(tert-butyl)-12-(furan-3-yl)-9-oxo-4,9-dihydro-5H-furo[3,2-f]pyrido[2,1-a]isoquinoline-8-carboxylic acid]
- CC50 at 3 days [1]: 10 to 25 µM
- EC50 (HBV (2.2.15 cells)): < 100 nM

SMILES: Cn1nccc1-c1cc2c(c3occc13)C[C@@H](C(C)(C)C)n1cc(C(=O)O)c(=O)cc1-2 [Example 14, (S)-5-(tert-butyl)-12-(1-methyl-1H-pyrazol-5-yl)-9-oxo-4,9-dihydro-5H-furo[2,3-f]pyrido[2,1-a]isoquinoline-8-carboxylic acid]
- CC50 at 3 days [1]: > 25 µM
- EC50 (HBV (2.2.15 cells)): < 100 nM

SMILES: Cn1ccc(-c2cc3c(c4ccoc24)C[C@@H](C(C)(C)C)n2cc(C(=O)O)c(=O)cc2-3)n1 [Example 23, (S)-5-(tert-butyl)-12-(1-methyl-1H-pyrazol-3-yl)-9-oxo-4,9-dihydro-5H-furo[3,2-f]pyrido[2,1-a]isoquinoline-8-carboxylic acid]
- EC50 (HBV (2.2.15 cells)): > 1000 nM

SMILES: CC(C)(C)[C@@H]1Cc2c(cc(-c3ccco3)c3occc23)-c2cc(=O)c(C(=O)O)cn21 [Example 26, (S)-5-(tert-butyl)-12-(furan-2-yl)-9-oxo-4,9-dihydro-5H-furo[3,2-f]pyrido[2,1-a]isoquinoline-8-carboxylic acid]
- EC50 (HBV (2.2.15 cells)): > 1000 nM

SMILES: CC(C)(C)[C@@H]1Cc2c(cc(-c3cnsc3)c3ccoc23)-c2cc(=O)c(C(=O)O)cn21 [Example 11, (S)-5-(tert-butyl)-12-(isothiazol-4-yl)-9-oxo-4,9-dihydro-5H-furo[2,3-f]pyrido[2,1-a]isoquinoline-8-carboxylic acid]
- CC50 at 3 days [1]: > 25 µM
- EC50 (HBV (2.2.15 cells)): < 100 nM

SMILES: CC(C)(C)[C@@H]1Cc2c(cc(-c3ccsc3)c3occc23)-c2cc(=O)c(C(=O)O)cn21 [Example 25, (S)-5-(tert-butyl)-9-oxo-12-(thiophen-3-yl)-4,9-dihydro-5H-furo[3,2-f]pyrido[2,1-a]isoquinoline-8-carboxylic acid]
- EC50 (HBV (2.2.15 cells)): > 1000 nM

SMILES: CC(C)(C)[C@@H]1Cc2c(cc(-c3cscn3)c3occc23)-c2cc(=O)c(C(=O)O)cn21 [Example 30, (S)-5-(tert-butyl)-9-oxo-12-(thiazol-4-yl)-4,9-dihydro-5H-furo[3,2-f]pyrido[2,1-a]isoquinoline-8-carboxylic acid]
- EC50 (HBV (2.2.15 cells)): > 1000 nM

SMILES: CC(C)(C)[C@@H]1Cc2c(cc(-c3cnco3)c3occc23)-c2cc(=O)c(C(=O)O)cn21 [Example 22, (S)-5-(tert-butyl)-12-(oxazol-5-yl)-9-oxo-4,9-dihydro-5H-furo[3,2-f]pyrido[2,1-a]isoquinoline-8-carboxylic acid]
- EC50 (HBV (2.2.15 cells)): 100 to 1000 nM

SMILES: CC(C)(C)[C@@H]1Cc2c(cc(-c3cccs3)c3occc23)-c2cc(=O)c(C(=O)O)cn21 [Example 24, (S)-5-(tert-butyl)-9-oxo-12-(thiophen-2-yl)-4,9-dihydro-5H-furo[3,2-f]pyrido[2,1-a]isoquinoline-8-carboxylic acid]
- EC50 (HBV (2.2.15 cells)): > 1000 nM

SMILES: CC(C)(C)[C@@H]1Cc2c(cc(-c3ccco3)c3ccoc23)-c2cc(=O)c(C(=O)O)cn21 [Example 8, (S)-5-(tert-butyl)-12-(furan-2-yl)-9-oxo-4,9-dihydro-5H-furo[2,3-f]pyrido[2,1-a]isoquinoline-8-carboxylic acid]
- CC50 at 3 days [1]: > 25 µM
- EC50 (HBV (2.2.15 cells)): < 100 nM

SMILES: CC(C)(C)[C@@H]1Cc2c(cc(-c3ccn[nH]3)c3ccoc23)-c2cc(=O)c(C(=O)O)cn21 [Example 6, (S)-5-(tert-butyl)-9-oxo-12-(1H-pyrazol-5-yl)-4,9-dihydro-5H-furo[2,3-f]pyrido[2,1-a]isoquinoline-8-carboxylic acid]
- CC50 at 3 days [1]: 10 to 25 µM
- EC50 (HBV (2.2.15 cells)): < 100 nM

SMILES: Cn1nccc1-c1cc2c(c3ccoc13)C[C@@H](C(C)(C)C)n1cc(C(=O)O)c(=O)cc1-2 [Example 4, (S)-5-(tert-butyl)-12-(1-methyl-1H-pyrazol-5-yl)-9-oxo-4,9-dihydro-5H-furo[3,2-f]pyrido[2,1-a]isoquinoline-8-carboxylic acid]
- EC50 (HBV (2.2.15 cells)): < 100 nM

SMILES: CC(C)(C)[C@@H]1Cc2c(cc(-c3cn[nH]c3)c3ccoc23)-c2cc(=O)c(C(=O)O)cn21 [Example 9, (S)-5-(tert-butyl)-9-oxo-12-(1H-pyrazol-4-yl)-4,9-dihydro-5H-furo[2,3-f]pyrido[2,1-a]isoquinoline-8-carboxylic acid]
- CC50 at 3 days [1]: > 25 µM
- EC50 (HBV (2.2.15 cells)): < 100 nM

SMILES: CC(C)(C)[C@@H]1Cc2c(cc(N3CCCC3)c3ccoc23)-c2cc(=O)c(C(=O)O)cn21 [Example 18, (S)-5-(tert-butyl)-9-oxo-12-(pyrrolidin-1-yl)-4,9-dihydro-5H-furo[2,3-f]pyrido[2,1-a]isoquinoline-8-carboxylic acid]
- CC50 at 3 days [1]: > 25 µM
- EC50 (HBV (2.2.15 cells)): < 100 nM

SMILES: CC(C)(C)[C@@H]1Cc2c(cc(N3CCC(F)(F)C3)c3occc23)-c2cc(=O)c(C(=O)O)cn21 [Example 20, (S)-5-(tert-butyl)-12-(3,3-difluoropyrrolidin-1-yl)-9-oxo-4,9-dihydro-5H-furo[3,2-f]pyrido[2,1-a]isoquinoline-8-carboxylic acid]
- EC50 (HBV (2.2.15 cells)): 100 to 1000 nM

SMILES: CC(C)(C)[C@@H]1Cc2c(cc(-c3ccsc3)c3ccoc23)-c2cc(=O)c(C(=O)O)cn21 [Example 7, (S)-5-(tert-butyl)-9-oxo-12-(thiophen-3-yl)-4,9-dihydro-5H-furo[2,3-f]pyrido[2,1-a]isoquinoline-8-carboxylic acid]
- CC50 at 3 days [1]: 10 to 25 µM
- EC50 (HBV (2.2.15 cells)): < 100 nM

SMILES: CC(C)(C)[C@@H]1Cc2c(cc(Cl)c3ccoc23)-c2cc(=O)c(C(=O)O)cn21 [Example 2, (S)-5-(tert-butyl)-12-chloro-9-oxo-4,9-dihydro-5H-furo[2,3-f]pyrido[2,1-a]isoquinoline-8-carboxylic acid]
- CC50 at 3 days [1]: > 25 µM
- EC50 (HBV (2.2.15 cells)): < 100 nM

SMILES: CC(C)(C)[C@@H]1Cc2c(cc(N3CCCC3)c3occc23)-c2cc(=O)c(C(=O)O)cn21 [Example 21, (S)-5-(tert-butyl)-9-oxo-12-(pyrrolidin-1-yl)-4,9-dihydro-5H-furo[3,2-f]pyrido[2,1-a]isoquinoline-8-carboxylic acid]
- EC50 (HBV (2.2.15 cells)): 100 to 1000 nM

SMILES: CC(C)(C)[C@@H]1Cc2c(cc(-c3cn[nH]c3)c3occc23)-c2cc(=O)c(C(=O)O)cn21 [Example 27, (S)-5-(tert-butyl)-9-oxo-12-(1H-pyrazol-4-yl)-4,9-dihydro-5H-furo[3,2-f]pyrido[2,1-a]isoquinoline-8-carboxylic acid]
- EC50 (HBV (2.2.15 cells)): > 1000 nM

SMILES: CC(C)(C)[C@@H]1Cc2c(cc(-c3cnsc3)c3occc23)-c2cc(=O)c(C(=O)O)cn21 [Example 29, (S)-5-(tert-butyl)-12-(isothiazol-4-yl)-9-oxo-4,9-dihydro-5H-furo[3,2-f]pyrido[2,1-a]isoquinoline-8-carboxylic acid]
- EC50 (HBV (2.2.15 cells)): > 1000 nM

SMILES: CC(C)(C)[C@@H]1Cc2c(cc(-c3ccn[nH]3)c3occc23)-c2cc(=O)c(C(=O)O)cn21 [Example 28, (S)-5-(tert-butyl)-9-oxo-12-(1H-pyrazol-5-yl)-4,9-dihydro-5H-furo[3,2-f]pyrido[2,1-a]isoquinoline-8-carboxylic acid]
- EC50 (HBV (2.2.15 cells)): > 1000 nM

SMILES: CC(C)(C)[C@@H]1Cc2c(ccc3occc23)-c2cc(=O)c(C(=O)O)cn21 [Example 31, (S)-5-(tert-butyl)-9-oxo-4,9-dihydro-11-furo[3,2-f]pyrido[2,1-a]isoquinoline-8-carboxylic acid]
- EC50 (HBV (2.2.15 cells)): > 1000 nM
